Values of other authors as cited in patent US7718380B2 (Abbott Laboratories, priority 2005, dated 2010).

C=CC[C@@H]1/C=C(\C)C[C@H](C)C[C@H](OC)[C@H]2O[C@@](O)(C(=O)C(=O)N3CCCC[C@H]3C(=O)O[C@H](/C(C)=C/[C@@H]3CC[C@@H](O)[C@H](OC)C3)[C@H](C)[C@@H](O)CC1=O)[C@H](C)C[C@@H]2OC [Tacrolimus]
solubility in aqueous solutions: limited solubility
